Values quoted from earlier work in PubChem BioAssay AID1259409 (Chemical Carcinogenesis Research Information System (CCRIS), 2018).

Tested on: rodent chemically induced tumor inhibition, incidence and multiplicity
Assay: CCRIS tumor inhibitor studies

Oc1cc(O)c2c(c1)O[C@H](c1ccc(O)c(O)c1)[C@@H](O)C2
tumour outcome (control, treated, inhibition, significance) (Carcinogen: 1,2-DIMETHYLHYDRAZINE [540-73-6], Species: RAT, Strain/Sex: WISTAR, Target Tissue: Type of Lesion: COLON, Dose [Carcinogen]: 20 MG/KG): 81.3%, 58.8%, 27.7%, p<0.05 | tumour outcome (control, treated, inhibition, significance) (Carcinogen: 7,12-DIMETHYLBENZ[A]ANTHRACENE, 57-97-6, Dose [Inhibitor]: 0, 0.2 ML OF A 1% SOLUTION 1/D FOR 2 WK APPLIED 5 MIN POST EACH CARCINOGEN DOSE THEN 1/D FOR 4 WK DURING PROMOTION STAGE, Route [Inhibitor]: DERMAL, Species: MOUSE, Strain/Sex: SWISS/MALE, Target Tissue: Type of Lesion: SKIN: PAPILLOMA, Dose [Carcinogen]: 0.2 ML OF A 0.24% SOLUTION IN DMSO 1/D FOR 2 WK, Promoter: CROTON OIL, 8001-28-3): 23/23 (100%), 16/23 (70%), 30%, not calculated | tumour outcome (control, treated, inhibition, significance) (Carcinogen: 7,12-DIMETHYLBENZ[A]ANTHRACENE, 57-97-6, Dose [Inhibitor]: 0, 0.2 ML OF A 1% SOLUTION 1/D FOR 2 WK APPLIED 5 MIN PRIOR TO EACH CARCINOGEN DOSE (STUDY DURATION: 20 WK), Route [Inhibitor]: DERMAL, Species: MOUSE, Strain/Sex: SWISS/MALE, Target Tissue: Type of Lesion: SKIN: PAPILLOMA, Dose [Carcinogen]: 0.2 ML OF A 0.24% SOLUTION IN DMSO 1/D FOR 2 WK, Promoter: CROTON OIL, 8001-28-3): 23/23 (100%), 20/23 (87%), 13%, not calculated | tumour outcome (control, treated, inhibition, significance) (Carcinogen: 7,12-DIMETHYLBENZ[A]ANTHRACENE, 57-97-6, Dose [Inhibitor]: 0, 2.5 MG/D IN DRINKING WATER FOR DURATION OF STUDY BEGINNING 2 WK PRIOR TO CARCINOGEN DOSE (STUDY DURATION: 6 MO), Route [Inhibitor]: ORAL, Species: RAT, Strain/Sex: WISTAR/FEMALE, Target Tissue: Type of Lesion: MAMMARY GLAND: TUMOR, Dose [Carcinogen]: 10 MG IN PEANUT OIL INJECTED INTO SUBCUTANEOUS POUCH CREATED IN THE 5TH AND 6TH MAMMARY GLAND REGION, Promoter: NONE USED): 20/20 (100%), 4/20 (20%), 80%, p<0.001 | tumour outcome (control, treated, inhibition, significance) (Carcinogen: 7,12-DIMETHYLBENZ[A]ANTHRACENE, 57-97-6, Dose [Inhibitor]: 0, 4 MG 2/WK FOR 20 WK BEGINNING 2 WK POST CARCINOGEN DOSE (STUDY DURATION: 22 WK), Route [Inhibitor]: DERMAL, Species: MOUSE, Strain/Sex: CF-1/FEMALE, Target Tissue: Type of Lesion: SKIN: PAPILLOMA, Dose [Carcinogen]: 25.6 UG ONCE, Promoter: 12-O-TETRADECANOYLPHORBOL-13-ACETATE, 16561-29-8): 97%, 97%, 0%, not significant | tumour outcome (control, treated, inhibition, significance) (Carcinogen: 7,12-DIMETHYLBENZ[A]ANTHRACENE, 57-97-6, Dose [Inhibitor]: 0, 12 MG 2/WK FOR 20 WK BEGINNING 2 WK POST CARCINOGEN DOSE (STUDY DURATION: 22 WK), Route [Inhibitor]: DERMAL, Species: MOUSE, Strain/Sex: CF-1/FEMALE, Target Tissue: Type of Lesion: SKIN: PAPILLOMA, Dose [Carcinogen]: 25.6 UG ONCE, Promoter: 12-O-TETRADECANOYLPHORBOL-13-ACETATE, 16561-29-8): 97%, 91%, 6%, not significant | tumour outcome (control, treated, inhibition, significance) (Carcinogen: BENZO[A]PYRENE, 50-32-8, Dose [Inhibitor]: 0, 2.5 MG/D IN DRINKING WATER FOR 8 WK BEGINNING 2 WK PRIOR TO CARCINOGEN TREATMENT (STUDY DURATION: 20 WK), Route [Inhibitor]: ORAL, Species: MOUSE, Strain/Sex: SWISS/FEMALE, Target Tissue: Type of Lesion: FORESTOMACH: TUMOR, Dose [Carcinogen]: 1 MG IN 0.1 ML PEANUT OIL 2/WK FOR 4 WK, Promoter: NONE USED): 20/20 (100%), 16/20 (80%), 20%, not significant | tumour outcome (control, treated, inhibition, significance) (Carcinogen: METHYL(ACETOXYMETHYL)NITROSAMINE, 56856-83-8, Dose [Inhibitor]: 0, 1.7 MG/D IN DRINKING WATER FOR DURATION OF STUDY BEGINNING 2 WK PRIOR TO CARCINOGEN TREATMENT (STUDY DURATION: 13 MO), Route [Inhibitor]: ORAL, Species: HAMSTER, Strain/Sex: SYRIAN/FEMALE, Target Tissue: Type of Lesion: ORAL: CAVITY, Dose [Carcinogen]: 2 MG/KG BW APPLIED TO RIGHT CHEEK POUCH 2/MO FOR 6 MO, Promoter: NONE USED): 14/15 (93%), 4/15 (27%), 71%, p<0.001 | tumour outcome (control, treated, inhibition, significance) (Carcinogen: N-ETHYL-N-HYDROXYETHYLNITROSAMINE, 13147-25-6, Dose [Inhibitor]: 0, 0.8% IN DIET FOR 36 WK BEGINNING 1 WK POST CARCINOGEN TREATMENT (STUDY DURATION: 40 WK), Route [Inhibitor]: ORAL, Species: RAT, Strain/Sex: WISTAR/MALE, Target Tissue: Type of Lesion: KIDNEY: MICROADENOMA, Dose [Carcinogen]: 0.1% IN DRINKING WATER FOR 3 WK, Promoter: NONE USED): 11/17 (65%), 12/17 (71%), -9%, not significant | tumour outcome (control, treated, inhibition, significance) (Carcinogen: N-ETHYL-N-HYDROXYETHYLNITROSAMINE, 13147-25-6, Dose [Inhibitor]: 0, 0.8% IN DIET FOR 36 WK BEGINNING 1 WK POST CARCINOGEN TREATMENT (STUDY DURATION: 40 WK), Route [Inhibitor]: ORAL, Species: RAT, Strain/Sex: WISTAR/MALE, Target Tissue: Type of Lesion: KIDNEY: RENAL CELL TUMOR, Dose [Carcinogen]: 0.1% IN DRINKING WATER FOR 3 WK, Promoter: NONE USED): 14/17 (82%), 11/17 (65%), 21%, not significant | tumour outcome (control, treated, inhibition, significance) (Carcinogen: N-ETHYL-N-HYDROXYETHYLNITROSAMINE, 13147-25-6, Dose [Inhibitor]: 0, 0.8% IN DIET FOR 36 WK BEGINNING 1 WK POST CARCINOGEN TREATMENT (STUDY DURATION: 40 WK), Route [Inhibitor]: ORAL, Species: RAT, Strain/Sex: WISTAR/MALE, Target Tissue: Type of Lesion: LIVER: HEPATOCELLULAR ADENOMA, Dose [Carcinogen]: 0.1% IN DRINKING WATER FOR 3 WK, Promoter: NONE USED): 10/17 (59%), 11/17 (65%), -10%, not significant | tumour outcome (control, treated, inhibition, significance) (Carcinogen: N-ETHYL-N-HYDROXYETHYLNITROSAMINE, 13147-25-6, Dose [Inhibitor]: 0, 0.8% IN DIET FOR 36 WK BEGINNING 1 WK POST CARCINOGEN TREATMENT (STUDY DURATION: 40 WK), Route [Inhibitor]: ORAL, Species: RAT, Strain/Sex: WISTAR/MALE, Target Tissue: Type of Lesion: LIVER: HEPATOCELLULAR CARCINOMA, Dose [Carcinogen]: 0.1% IN DRINKING WATER FOR 3 WK, Promoter: NONE USED): 7/17 (41%), 3/17 (18%), 56%, not significant | tumour outcome (control, treated, inhibition, significance) (Carcinogen: N-NITROSOBIS(2-HYDROXYPROPYL)AMINE, 53609-64-6, Dose [Inhibitor]: 0, 1.5% IN DIET FOR 30 WK BEGINNING POST CARCINOGEN TREATMENT (STUDY DURATION: 35 WK), Route [Inhibitor]: ORAL, Species: HAMSTER, Strain/Sex: SYRIAN/MALE, Target Tissue: Type of Lesion: PANCREAS: ADENOCARCINOMA, Dose [Carcinogen]: 500 MG/KG 1/WK FOR 5 WK, Promoter: NONE USED): 8/17 (47%), 5/19 (26%), 45%, not significant | tumour outcome (control, treated, inhibition, significance) (Carcinogen: NONE USED, Dose [Inhibitor]: 0, 2.5 MG/D IN DRINKING WATER FROM 8 MO OF AGE (STUDY DURATION: 15 MO), Route [Inhibitor]: ORAL, Species: MOUSE, Strain/Sex: C3H/FEMALE, Target Tissue: Type of Lesion: MAMMARY GLAND: TUMOR, Promoter: NONE USED): 12/20 (60%), 8/20 (40%), 33%, not calculated

O=CCc1c[nH]c2ccccc12
tumour outcome (control, treated, inhibition, significance) (Carcinogen: 7,12-DIMETHYLBENZ[A]ANTHRACENE, 57-97-6, Dose [Inhibitor]: 0.1 MMOL IN 1 ML DIMETHYL SULFOXIDE ONCE 20 HR PRIOR TO CARCINOGEN ADMINISTRATION FOLLOWED BY A 14 WK OBSERVATION PERIOD, Route [Inhibitor]: GAVAGE, Species: RAT, Strain/Sex: SPRAGUE-DAWLEY/FEMALE, Target Tissue: Type of Lesion: MAMMARY GLAND: TUMOR, Dose [Carcinogen]: 12 MG IN 1 ML OLIVE OIL ONCE, Promoter: NONE USED): 64%, 36%, 44%, not significant

COc1cc2c3cc1Oc1c(OC)c(OC)cc4c1[C@@H](Cc1ccc(O)c(c1)Oc1ccc(cc1)C[C@@H]3N(C)CC2)N(C)CC4
tumour outcome (control, treated, inhibition, significance) (Carcinogen: 7,12-DIMETHYLBENZ[A]ANTHRACENE, 57-97-6, Dose [Inhibitor]: 0, 2 UMOL 2/WK 30 MIN PRIOR TO EACH PROMOTER DOSE BEGINNING 1 WK POST CARCINOGEN DOSE (STUDY DURATION: 18 WK), Route [Inhibitor]: DERMAL, Species: MOUSE, Strain/Sex: ICR/FEMALE, Target Tissue: Type of Lesion: SKIN: PAPILLOMA, Dose [Carcinogen]: 50 UG ONCE, Promoter: 12-O-TETRADECANOYLPHORBOL-13-ACETATE, 16561-29-8): 100%, 20%, 80%, not calculated
